From ChEMBL document CHEMBL1145215, “Design, synthesis, and biological evaluation of achiral analogs of duocarmycin SA” (Bioorg Med Chem Lett, 2005) come the findings set out here.

The subject of assay [1] is LS174T. Description: Cytotoxicity against LS174T (human colon carcinoma )cells. Format: functional, cell-based.
Assay [2] deals with K562. Description: Cytotoxicity was determined against K562 (chronic human myeloid leukemia )cells. The format is functional, cell-based.

What is called IC50 is the concentration at which inhibition is half-maximal. High values mean a need for much substance, low ones inhibition by little substance. For the compound `COC(=O)c1[nH]c2c(O)cc(NC(=O)c3cc4cc(NC(=O)c5cc6ccccc6o5)ccc4[nH]3)c(CCCl)c2c1C(=O)OC`, the IC50 in assay [1] worked out at 0.004 µM; in assay [2] it was 0.025 µM.

Take `COc1cc2cc(C(=O)Nc3cc(O)ccc3CCCl)[nH]c2c(OC)c1OC`: the half-maximal inhibitory concentration (IC50) in assay [1] stood at 13.8 µM; in assay [2], 1.47 µM.

Consider `COC(=O)c1[nH]c2c(O)cc(NC(=O)c3cc4cc(OC)c(OC)c(OC)c4[nH]3)c(CCCl)c2c1C(=O)OC`, for which the IC50 in assay [1] was determined as 0.004 µM; in assay [2] it was 0.025 µM.
